According to patent publication US20030133913A1, “Methods of maturing plasmacytoid dendritic cells using immune response modifier molecules” (3M Innovative Properties Company, priority 2001, published 2003):

System: plasmacytoid dendritic cells
Test: Enhanced survival of isolated pDCs, cell viability by flow cytometry
Format: cell-based, human
Details: 48 hours after treatment with IRM (3 μM) versus without IRM; FIG. 4
Procedure: Human pDCs were isolated from PBMC by immunomagnetic bead positive selection according to the manufacturer's instructions (Miltenyi Biotec, Inc., Auburn, Calif.). Briefly, PBMC were incubated with pDC-specific antibodies, BDCA-2 or BDCA-4, and the labeled cells were collected with a Miltenyi LS column. The positively selected cells were resuspended in X-Vivo 20 medium. Isolated pDCs were obtained as described in Example 2. The isolated pDCs were incubated in with and without IRM. Cell viability was measured in both cultures by flow cytometry after 24 hours and again after 48 hours. […] Pairwise comparisons of IRM-treated cells to the control group were performed using the Dunnett adjustment to preserve the overall 0.05 level of significance. If there were discrepancies between the 2 methods, the results from the arcsin transformed data were reported.

## CCOCc1nc2c(N)nc3ccccc3c2n1CC(C)(C)O [IRM, 4-amino-2-ethoxymethyl-α,α-dimethyl-1H-imidazo[4,5-c]quinoline-1-ethanol]
  pDC survival (percent viable): statistically significant higher rate of survival
